We go through one molecule from paper PMC6104635 (ACS chemical neuroscience, 2018).

The structures appear in SMILES notation. Changes are numbered by the printed parent chain.

Holding throughout (assay type): cell-based
The target of test [1] is T1, rat M4 (Rattus norvegicus, UniProt P08485).
T1 sequence (P08485 1-478): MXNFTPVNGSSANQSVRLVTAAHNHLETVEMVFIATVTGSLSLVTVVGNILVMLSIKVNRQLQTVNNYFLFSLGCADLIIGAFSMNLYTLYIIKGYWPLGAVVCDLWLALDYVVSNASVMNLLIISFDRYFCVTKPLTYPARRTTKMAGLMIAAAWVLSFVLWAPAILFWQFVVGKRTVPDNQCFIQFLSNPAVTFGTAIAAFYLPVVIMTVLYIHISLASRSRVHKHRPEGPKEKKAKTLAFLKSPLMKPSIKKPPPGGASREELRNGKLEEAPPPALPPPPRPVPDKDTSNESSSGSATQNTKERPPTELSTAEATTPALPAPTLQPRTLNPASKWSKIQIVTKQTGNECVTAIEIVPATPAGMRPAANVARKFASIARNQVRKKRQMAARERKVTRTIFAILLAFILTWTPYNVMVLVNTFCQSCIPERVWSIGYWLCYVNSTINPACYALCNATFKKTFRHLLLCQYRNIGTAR
The test can be described thus: mAChR selectivity, PAM activity at rat M4.

The target in test [2] is T2, human M2 (Homo sapiens, UniProt P08172).
T2 sequence (P08172 1-466): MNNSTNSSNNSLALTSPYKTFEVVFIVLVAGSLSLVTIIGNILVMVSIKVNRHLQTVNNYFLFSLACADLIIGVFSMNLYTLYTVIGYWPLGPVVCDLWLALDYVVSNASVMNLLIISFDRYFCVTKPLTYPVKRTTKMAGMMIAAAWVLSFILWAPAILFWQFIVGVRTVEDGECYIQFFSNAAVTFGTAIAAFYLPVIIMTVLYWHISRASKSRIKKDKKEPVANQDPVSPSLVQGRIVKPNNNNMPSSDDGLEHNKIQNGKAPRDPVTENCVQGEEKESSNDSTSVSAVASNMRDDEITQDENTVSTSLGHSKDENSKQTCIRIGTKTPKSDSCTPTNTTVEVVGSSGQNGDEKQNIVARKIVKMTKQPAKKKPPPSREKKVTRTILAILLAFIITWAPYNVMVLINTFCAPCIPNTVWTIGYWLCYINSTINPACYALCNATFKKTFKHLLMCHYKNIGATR
The test can be described thus: mAChR selectivity, PAM activity at human M2. To be noted: result in words.

In test [3] the target is T3, rat M1 (Rattus norvegicus, UniProt P08482).
T3 sequence (P08482 1-460): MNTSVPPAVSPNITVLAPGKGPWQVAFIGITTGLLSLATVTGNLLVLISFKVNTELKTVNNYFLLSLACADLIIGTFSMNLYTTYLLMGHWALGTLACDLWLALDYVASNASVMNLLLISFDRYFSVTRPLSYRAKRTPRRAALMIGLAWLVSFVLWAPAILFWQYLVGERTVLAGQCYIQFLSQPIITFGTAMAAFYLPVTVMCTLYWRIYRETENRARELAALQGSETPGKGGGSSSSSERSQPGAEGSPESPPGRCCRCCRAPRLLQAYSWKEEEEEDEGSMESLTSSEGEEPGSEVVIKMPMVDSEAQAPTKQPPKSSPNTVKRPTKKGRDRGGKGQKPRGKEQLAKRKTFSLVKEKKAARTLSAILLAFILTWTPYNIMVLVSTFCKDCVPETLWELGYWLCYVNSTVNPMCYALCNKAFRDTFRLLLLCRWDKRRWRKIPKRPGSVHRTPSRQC
The test can be described thus: mAChR selectivity, PAM activity at rat M1.

Test [4] concerns the target T4, human M1 (Homo sapiens, UniProt P11229).
T4 sequence (P11229 1-460): T3 sequence (P08482 1-460) with V5A, S254T, S309P, K320R, G337A, V413I
In words: mAChR selectivity, PAM activity at human M1.

The target in test [5] is T5, rat M2 (Rattus norvegicus, UniProt P10980).
T5 sequence (P10980 1-466): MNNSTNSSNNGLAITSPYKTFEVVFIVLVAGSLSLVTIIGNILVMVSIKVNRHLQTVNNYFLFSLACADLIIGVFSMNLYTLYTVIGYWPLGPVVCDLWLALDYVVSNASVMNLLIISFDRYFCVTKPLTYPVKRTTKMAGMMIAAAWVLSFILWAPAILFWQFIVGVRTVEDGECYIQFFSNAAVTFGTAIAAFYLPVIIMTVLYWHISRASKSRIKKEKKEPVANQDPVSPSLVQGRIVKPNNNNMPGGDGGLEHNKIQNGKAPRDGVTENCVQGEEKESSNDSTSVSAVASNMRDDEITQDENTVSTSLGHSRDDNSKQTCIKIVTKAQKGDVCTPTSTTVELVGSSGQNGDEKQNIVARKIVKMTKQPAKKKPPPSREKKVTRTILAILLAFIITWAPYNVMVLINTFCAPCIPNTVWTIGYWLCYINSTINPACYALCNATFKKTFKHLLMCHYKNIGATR
The test can be described thus: mAChR selectivity, PAM activity at rat M2. To be noted: result in words.

Take `CCCN(C(=O)C1CCN(S(=O)(=O)c2ccc3[nH]ncc3c2)CC1)[C@@H]1CCc2c(F)cccc21` [Compound 18g]: the “rat M4 % ACh Max” value in test [1] came out at 49 % ACh Max. Besides, the EC50 is 3910 nM in test [1] (read-out: rat M4 EC50); 904 nM in test [3] (read-out: rat M1 EC50); 1030 nM in test [4] (read-out: human M1 EC50, PAM activity). Moreover, the “human M2 PAM activity” value in test [2] is “inactive”. Further, in test [3], the “rat M1 % ACh Max” value worked out at 69 % ACh Max. Also, the “selectivity for M5 versus M1” value in test [4] (M5-preferring PAM) is 20 fold. Besides, the “human M1 % ACh Max” value in test [4] (PAM activity) came to 67 % ACh Max. Further, the “rat M2 PAM activity” value in test [5] is “inactive”.
